The record followed here is PubChem BioAssay (NCI).

Test systems include OVCAR-4 ovarian; SW-620 colon; T-47D breast; HL-60(TB) leukemia; MDA-MB-231 breast; A549 NSCLC; OVCAR-5 ovarian; SK-MEL-2 melanoma.
Holding throughout (experiment): NCI anticancer screen, dose series, 48 h

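Five compound concentrations were applied to cells in 96-well plates for 48 hours; endpoints were derived by simple linear interpolation of the resulting dose-response curve. At the GI50, growth is halved. Definition used: TGI = concentration required for complete inhibition of growth.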

Consider `COc1ccc2nc(-c3cc4c([nH]c5ccccc54)c(-c4ccc(F)c(F)c4)n3)[nH]c2c1`, for which the GI50 in the assay on OVCAR-4 ovarian was 6.3 µM; with SW-620 colon, 4.82 µM; in the assay on T-47D breast, 3.76 µM; in the assay on HL-60(TB) leukemia, 2.78 µM; in the assay on MDA-MB-231 breast, 10.4 µM; with A549 NSCLC it was 4.05 µM. Also, the GI50 is 17.8 µM in the assay on OVCAR-5 ovarian and 12.1 µM in the assay on SK-MEL-2 melanoma. Moreover, the TGI was determined as 24 µM in the assay on OVCAR-4 ovarian; 23.7 µM in the assay on SW-620 colon; 20 µM with T-47D breast; 7.12 µM in the assay with HL-60(TB) leukemia; 34 µM in the assay with MDA-MB-231 breast; 17.6 µM with A549 NSCLC. The TGI in the assay with OVCAR-5 ovarian was determined as 58.6 µM; in the assay with SK-MEL-2 melanoma it was 34.9 µM.
As to `COc1cc(N2CCC(N3CCN(C)CC3)CC2)ccc1Nc1ncc(Cl)c(Nc2ccccc2S(=O)(=O)C(C)C)n1`, the GI50 in the assay with OVCAR-4 ovarian was 0.341 µM; in the assay on SW-620 colon it was 0.337 µM; with T-47D breast it was 1.59 µM; in the assay on HL-60(TB) leukemia it was 0.327 µM; with MDA-MB-231 breast, 0.705 µM; in the assay with A549 NSCLC, 0.402 µM. The GI50 in the assay with OVCAR-5 ovarian is 0.659 µM; in the assay with SK-MEL-2 melanoma it was 1.33 µM. For the same compound, the TGI was 2.17 µM in the assay with OVCAR-4 ovarian; 2.52 µM in the assay on SW-620 colon; 3.55 µM in the assay with T-47D breast; 1.4 µM with HL-60(TB) leukemia; 2.43 µM in the assay on MDA-MB-231 breast; 2.03 µM with A549 NSCLC. The results for the TGI with OVCAR-5 ovarian and with SK-MEL-2 melanoma were 5.48 µM and 3.45 µM, respectively.
`CCN(CC)CC[n+]1cc2cc(OC)c(OC)cc2c2ccc3cc4c(cc3c21)OCO4`: the GI50 in the assay on OVCAR-4 ovarian was 0.775 µM; with SW-620 colon, 0.442 µM; in the assay on T-47D breast it was 0.378 µM; in the assay on HL-60(TB) leukemia, 1.42 µM; in the assay on MDA-MB-231 breast, 0.709 µM; in the assay on A549 NSCLC, 0.376 µM. In addition, the GI50 was 1.01 µM with OVCAR-5 ovarian and 1.64 µM in the assay on SK-MEL-2 melanoma. The TGI with OVCAR-4 ovarian came out at 4.16 µM; with SW-620 colon it was 2.36 µM; with T-47D breast, 12.1 µM; in the assay on HL-60(TB) leukemia it was 4.69 µM; in the assay on MDA-MB-231 breast, 2.71 µM; in the assay on A549 NSCLC, 1.84 µM. For the same compound, the TGI in the assay on OVCAR-5 ovarian was 3.17 µM; in the assay with SK-MEL-2 melanoma it was 4.59 µM.
For `O=C(O)CCSC(=S)Nc1ccc([N+](=O)[O-])cc1`, the TGI in the assay on OVCAR-4 ovarian is > 100 µM; in the assay with SW-620 colon, > 100 µM; in the assay with T-47D breast it was > 100 µM; with HL-60(TB) leukemia, 48.6 µM; with MDA-MB-231 breast it was > 100 µM; in the assay with A549 NSCLC, > 100 µM. Also, the TGI with OVCAR-5 ovarian and in the assay with SK-MEL-2 melanoma was > 100 µM each time.
Take `C=CCSSc1ncnc2c1ncn2C1OC(CO)C(O)C1O` (centres undefined): the GI50 in the assay with OVCAR-4 ovarian is 0.782 µM; in the assay on SW-620 colon, 4.07 µM; in the assay with T-47D breast it was 0.976 µM; with HL-60(TB) leukemia, 3.27 µM; with MDA-MB-231 breast, 3.76 µM; in the assay with A549 NSCLC, 21.9 µM. Besides, the GI50 with OVCAR-5 ovarian was 4.29 µM; in the assay on SK-MEL-2 melanoma, 6.25 µM. Besides, the TGI was > 100 µM with OVCAR-4 ovarian; 23.2 µM in the assay on SW-620 colon; > 100 µM in the assay with T-47D breast; 19.9 µM in the assay on HL-60(TB) leukemia; > 100 µM in the assay with MDA-MB-231 breast; > 100 µM with A549 NSCLC. The TGI in the assay on OVCAR-5 ovarian was > 100 µM; with SK-MEL-2 melanoma, > 41.9 µM.
On to `Cc1cc(N(CCOS(C)(=O)=O)CCOS(C)(=O)=O)ccc1C=Nc1ccc(-c2csc(-c3ccc(Br)cc3)n2)cc1`, for which the TGI in the assay on OVCAR-4 ovarian was 84.9 µM; in the assay on SW-620 colon it was > 100 µM; in the assay on T-47D breast, 80.1 µM; in the assay with HL-60(TB) leukemia it was 55.9 µM; in the assay with MDA-MB-231 breast, 39.2 µM; in the assay with A549 NSCLC, 53.1 µM. Besides, the TGI in the assay with OVCAR-5 ovarian amounted to 54.9 µM; with SK-MEL-2 melanoma, 61.7 µM.
Take `Cc1cc2nc(C(Cl)Cl)nc(-c3ccccc3)n2n1`: the GI50 in the assay with OVCAR-4 ovarian is 2.19 µM; with SW-620 colon, 3.22 µM; with T-47D breast it was 4 µM; in the assay with HL-60(TB) leukemia it was 2.38 µM; with MDA-MB-231 breast, 3.44 µM; with A549 NSCLC it was 2.48 µM. Further, the GI50 in the assay with OVCAR-5 ovarian was 3.3 µM; in the assay with SK-MEL-2 melanoma, 27.8 µM. Besides, the TGI is 7.51 µM with OVCAR-4 ovarian; 28 µM with SW-620 colon; 89.1 µM with T-47D breast; 6.35 µM in the assay on HL-60(TB) leukemia; 20.9 µM in the assay on MDA-MB-231 breast; 6.45 µM in the assay with A549 NSCLC. The values for the TGI with OVCAR-5 ovarian and in the assay with SK-MEL-2 melanoma were 17.1 µM and > 100 µM, respectively.
On to `C[C@@H]1OCC2(CCN(c3cnc(Sc4ccnc(N)c4Cl)c(N)n3)CC2)[C@@H]1N`, for which the GI50 with OVCAR-4 ovarian is 26.9 µM; in the assay on SW-620 colon, 88.7 µM; in the assay on T-47D breast it was 46.3 µM; in the assay on HL-60(TB) leukemia it was > 100 µM; in the assay with MDA-MB-231 breast it was > 100 µM; in the assay with A549 NSCLC, > 100 µM. The GI50 in the assay on OVCAR-5 ovarian and in the assay with SK-MEL-2 melanoma was > 100 µM each time. Also, the TGI with OVCAR-4 ovarian, with SW-620 colon, in the assay on T-47D breast, in the assay with HL-60(TB) leukemia, in the assay on MDA-MB-231 breast and in the assay with A549 NSCLC was > 100 µM throughout. In addition, the TGI with OVCAR-5 ovarian and in the assay with SK-MEL-2 melanoma was > 100 µM throughout.
On to `CCOCCOC[C@H]1CCCN(c2ccnc3sc(C(N)=O)c(N)c23)C1`, for which the GI50 in the assay with OVCAR-4 ovarian was 13.5 µM; in the assay on SW-620 colon it was > 100 µM; in the assay with T-47D breast it was 3.9 µM; with HL-60(TB) leukemia, 48.7 µM; in the assay on MDA-MB-231 breast it was 58.7 µM; in the assay with A549 NSCLC it was 77.4 µM. The results for the GI50 in the assay on OVCAR-5 ovarian and in the assay on SK-MEL-2 melanoma were > 100 µM and 11.1 µM, respectively. For the same compound, the TGI in the assay on OVCAR-4 ovarian, with SW-620 colon, in the assay with T-47D breast, with HL-60(TB) leukemia, with MDA-MB-231 breast and with A549 NSCLC was > 100 µM throughout. In addition, the TGI in the assay on OVCAR-5 ovarian and in the assay with SK-MEL-2 melanoma was > 100 µM each time.
As for `C=C1C(=O)O[C@H]2[C@H]1CC/C(COC(=O)NCc1cc(OC)cc(OC)c1)=C\CC[C@@]1(C)O[C@@H]21`, the GI50 with OVCAR-4 ovarian was 1.7 µM; with SW-620 colon, 1.12 µM; with T-47D breast it was 1.85 µM; in the assay with HL-60(TB) leukemia, 1.69 µM; in the assay on MDA-MB-231 breast it was 1.61 µM; in the assay on A549 NSCLC it was 2.58 µM. Further, the results for the GI50 in the assay on OVCAR-5 ovarian and with SK-MEL-2 melanoma were 1.82 µM and 1.66 µM, respectively. In addition, the TGI in the assay on OVCAR-4 ovarian was determined as 5.24 µM; in the assay on SW-620 colon it was 3.97 µM; in the assay on T-47D breast, 4.83 µM; in the assay on HL-60(TB) leukemia, 5.03 µM; with MDA-MB-231 breast, 4.07 µM; in the assay on A549 NSCLC it was 7.47 µM. Besides, the TGI with OVCAR-5 ovarian was determined as 4.45 µM; in the assay with SK-MEL-2 melanoma, 3.54 µM.
